How the values were obtained:
[1] = test system: H9 human embryonic stem cells (hESCs); assay: qPCR analysis of neural and retinal gene expression during hPSC neural/retina differentiation; assay type: cell-based
Method: hPSCs (H9, IMR-90-4 and WC30) were maintained under E8/feeder-free culture condition and passaged at 1:20 ratio with Rock inhibitor. After each new passage, the cells were fed with E8 medium for another 1˜2 days to reach 30-40% confluence. To initiate retina differentiation, culture medium was replaced with Retina Induction Medium (RIM) containing Neural induction medium (NIM) comprising DMEM/F12 media containing 1% N2 and 1× nonessential amino acids (NEAA) supplemented with 10 μM SB431542 (TGF inhibitor, Stemgent, 04-0010-10); this new passage day was counted as day 0 (DO) of retina differentiation. Cells were then fed daily with RIM, or every other day based on the cell density. On day 4, the cells were dissociated by ReLeSR (STEM CELL) or EDTA and re-suspended in the fresh RIM containing 0.5 micromolar (μM) Rock inhibitor. Cell clusters were thereafter transferred to a cell culture flask and cultured in suspension. On day 5, the resulting cell spheres were fed with RIM without SB431542. […] At day 20, the spheres were cultured in Transition medium (DMEM/F12: Neurobasal (1:1) with 1% N2, 2% B27, 1×NEAA and 1×Glutamax) until analysis.
Total RNA was isolated with the RNeasy Plus Mini Kit according to the manufacturer's instructions. For quantitative PCR (qPCR), cDNA was synthesized using PrimeScript RT Reagent Kit (Takara). qPCR was performed using iTaq Universal SYBR Green Supermix (Bio-Rad). GAPDH gene was used as an internal control to equalize cDNA.
H9 human embryonic stem cells (hESCs) were differentiated to neuroepithelia by culture in chemically defined media as disclosed above and then treated with inhibitors against BMP (DMH1), TGF-beta (SB-431542, SB), or WNT (IWR1) pathways separately for 6 days during the neural induction process (FIG. 2a).
Because SOX1 expression was known to be absent in retinal progenitors (also shown in FIG. 7a), expression of SOX2 and SOX1 presented a simple determining marker for cortical vs. retinal progenitors.

hPSCs = assay: Single nucleus RNA-seq (snRNA-Seq) profiling of differentiating cells; assay type: cell-based, human; details: day 12
Method: Differentiating cells at multiple time points (day 0-day 12) indicated below were digested and collected for nucleus isolation and library construction (Tao et al., 2024, Nat. Biotech. 12:1404-1416; https://doi.org/10.1038/s41587-023-01977-4). All libraries prepared in this way were processed by NovaSeq. Alignment of raw sequencing reads, and generation of feature barcode matrices were performed using Cellranger (7.1.0). Seurat (4.1.3) was used to process feature barcode matrices and analyze snRNA-Seq data32. All samples were processed under standard quality control metrics. Single cells with more than 300 unique genes (nFeature) and less than 15% or 20% mitochondrial gene reads (percent.mt) were selected for follow-up analysis. Additional procedures were used to exclude low quality cells and doublets in each sample (nFeature<6,000 and nCount<20,000). […] After quality control, all snRNA-Seq data were normalized using the SCTransform (v2) function in Seurat with mitochondria genes regressed out (Choudhary, S. et al., 2022, Genome Biol 23, 27). PCA and UMAP reduction, gene feature plots were done by using Seurat as well.
Single nucleus RNA-seq (snRNA-Seq) assays were performed to profile and compare the differentiating cells under the SB or SB+DMH1 conditions (FIG. 2d). On day 6, after filtering low quality and dead cells, 8,533 and 9,756 cells in the SB and SB+DMH1 groups were collected, respectively. Uniform manifold approximation and projection (UMAP) clustering identified 11 clusters in both conditions (FIG. 2e).
To verify this observation, cells were differentiated with only SB for the first 6 days to generate primitive neuroepithelial cells and then how the BMP pathway regulated retinal differentiation was investigated by treating the cells with or without DMH1 at day 6 (FIG. 2d). Cell nuclei were collected on day 12 for snRNA-Seq to compare differentiating cells in the control (medium without inhibitors) and under DMH1 conditions. […] UMAP clustering identified 13 clusters (FIGS. 2h-2j, FIG. 10a).

[2] = test system: H9 human embryonic stem cells (hESCs); assay: Flow cytometry of differentiating cells for SOX2, SOX1 and PAX6; assay type: cell-based; details: day 12; FIG. 8a
Method: Flow cytometry was performed following manufacturer's instruction using Transcription Factor Buffer Set which is designed for transcription factor staining. Briefly, single cells were prepared using TrypLE Express Enzyme and fixed in the fixation buffer provided in the kit at 2-8° C. for 45 min. After 3 washings with the permeable buffer, the primary antibodies were added to cells for 45 min at 2-8° C. in a light-tight box. The cells were washed 3 times before incubation with fluorescently conjugated secondary antibodies for 45 mins at 2-8° C. in a light-tight box. After 3 times of washing, cells were suspended in the washing buffer and analyzed by flow cytometry (BD LSR or BD LSRII). Data analysis was performed using FlowJo. Antibodies used were: SOX2 (R&D Systems AF2018), SOX1 (R&D Systems AF3369), PAX6 Alexa Fluor 488 (BD Biosciences Cat #561664), SOX2-V450 (BD Biosciences Cat #561610), SOX1-PE (BD Biosciences Cat #561592), PAX6 (Covance Cat #PRB-278P), VSX2 (Exalpha, Cat #X1180P), CRX (Abnova, Cat #H00001406-M02), OPSIN (MilliporeSigma, Cat #AB5407). Due to the lack of retinal differentiation resulting from BMP inhibition, expression of retina genes was examined at multiple time points in SB and SB plus dorsomorphin homolog 1 (SB+DMH1), which was a well-established dual-SMAD inhibition condition for neural conversion (Chambers, S. M. et al., 2009, Nat Biotechnol 27:275-280). […]

[3] = inhibitor for 6 days during neural induction, vs control, qPCR, FIG. 2b
[4] = SB day 0-5, then DMH1 from day 6, vs control
[5] = inhibitor for 6 days during neural induction, qPCR, FIG. 2b

Structure (SMILES)	expression of neural genes including PAX6 and SOX1 [1, 3]	expression of retinal lineage-specific markers RAX and VSX2 [1, 3]	GLI3 expression (hPSCs; [4])	MKI67 and NES expression levels in progenitor clusters (hPSCs; [4])	expression of EFTFs PAX6, LHX2, SIX3 and OTX2 (hPSCs; [4])	expression of BMP target genes ID1/2/4 (hPSCs; SB day 0-5, then DMH1 from day 6, FIG. 10b)	effect on retinal differentiation [1, 5]	expression of SOX1 (definitive neuroepithelial marker) [1, 5]	expression pattern of SOX1 over time ([1]; time course after day 6, SB condition vs BMP2 administration, FIG. 3c)	SOX1 and SOX2 double positive cells (definitive neuroepithelial cells) [2] [%]
CC(C)Oc1ccc(-c2cnc3c(-c4ccnc5ccccc45)cnn3c2)cc1 [DMH1]	efficiently induced	did not show much change	downregulated	much lower	much lower or even absent	much lower levels				
O=C(Nc1cccc2cccnc12)c1ccc(N2C(=O)[C@@H]3[C@H](C2=O)[C@@H]2C=C[C@H]3C2)cc1 [IWR1]							did not have much effect			
NC(=O)c1ccc(-c2nc(-c3ccc4c(c3)OCO4)c(-c3ccccn3)[nH]2)cc1 [SB]		highest expression level						low expression	increased steadily	14

Source: patent US20250145946A1, “GENERATION OF PURE RETINAL CELLS FROM HUMAN PLURIPOTENT STEM CELLS” (Wisconsin Alumni Research Foundation, priority 2023, published 2025)
